Values joined by “and” are separate entries in the source; they are usually repeats but may differ in a detail not shown here. Equal values may be shown once. Toxic doses and inconclusive results are not listed.
Tested on: P388 leukemia ip, CD2F1 mice, survival T/C
Test: NCI In Vivo Anticancer Drug Screen. Data for tumor model P388 Leukemia (intraperitoneal) in CD2F1 (CDF1) mice
Conditions: endpoint: median survival time, higher = longer survival
In short: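 Mice carrying the transplanted tumor received test compound or vehicle. Survival was recorded in each group, and the value is the treated-group measurement divided by that of the vehicle-treated control group.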

[1] = dose: 100.0 mg/kg/injection, schedule: Q01DX009 (ip), vehicle: saline with Tween-80
[2] = dose: 6.25 mg/kg/injection, schedule: Q01DX009 (ip), vehicle: saline with Tween-80
[3] = dose: 12.5 mg/kg/injection, schedule: Q01DX009 (ip), vehicle: saline with Tween-80
[4] = dose: 25.0 mg/kg/injection, schedule: Q01DX009 (ip), vehicle: saline with Tween-80
[5] = dose: 50.0 mg/kg/injection, schedule: Q01DX005 (ip), vehicle: saline with Tween-80
[6] = dose: 60.0 mg/kg/injection, schedule: Q01DX005 (ip), vehicle: saline with Tween-80
[7] = dose: 120.0 mg/kg/injection, schedule: Q01DX005 (ip), vehicle: saline with Tween-80
[8] = dose: 240.0 mg/kg/injection, schedule: Q01DX005 (ip), vehicle: saline with Tween-80
[9] = dose: 50.0 mg/kg/injection, schedule: Q01DX005 (ip), vehicle: Klucel (hydroxypropylcellulose) (HPC)
[10] = dose: 100.0 mg/kg/injection, schedule: Q01DX005 (ip), vehicle: Klucel (hydroxypropylcellulose) (HPC)
[11] = dose: 200.0 mg/kg/injection, schedule: Q01DX005 (ip), vehicle: Klucel (hydroxypropylcellulose) (HPC)
[12] = dose: 50.0 mg/kg/injection, schedule: Q01DX009 (ip), vehicle: saline
[13] = dose: 100.0 mg/kg/injection, schedule: Q01DX009 (ip), vehicle: saline
[14] = dose: 200.0 mg/kg/injection, schedule: Q01DX009 (ip), vehicle: saline
[15] = dose: 12.5 mg/kg/injection, schedule: Q01DX009 (ip), vehicle: saline
[16] = dose: 25.0 mg/kg/injection, schedule: Q01DX009 (ip), vehicle: saline

## Cn1c(O)c(N=O)c(=O)[nH]c1=O
dose: 50.0 mg/kg/injection, schedule: Q01DX009 (ip), vehicle: saline with Tween-80
  T/C: 95 % of control
[1]
  T/C: 99 % of control
dose: 100.0 mg/kg/injection, schedule: Q04DX002 (ip), vehicle: saline with Tween-80
  T/C: 100 % of control
dose: 200.0 mg/kg/injection, schedule: Q01DX009 (ip), vehicle: saline with Tween-80
  T/C: 87 % of control

## C/C=C/[Se]c1ccccc1
[2]
  T/C: 103 % of control
[3]
  T/C: 106 % of control
[4]
  T/C: 103 % of control
[1]
  T/C: 105 % of control and 107 % of control and 121 % of control

## Cc1ccc(S(=O)(=O)NC(=O)C#CCOC2CCCCO2)cc1 (stereo unspecified)
[5]
  T/C: 103 % of control and 122 % of control
dose: 100.0 mg/kg/injection, schedule: Q01DX005 (ip), vehicle: saline with Tween-80
  T/C: 111 % of control and 112 % of control
dose: 200.0 mg/kg/injection, schedule: Q01DX005 (ip), vehicle: saline with Tween-80
  T/C: 112 % of control and 123 % of control

## O=C(O)CCCCc1ccc(CCCCC(=O)O)c2ccccc12
dose: 100.0 mg/kg/injection, schedule: Q04DX003 (ip), vehicle: saline with Tween-80
  T/C: 103 % of control
dose: 200.0 mg/kg/injection, schedule: Q04DX003 (ip), vehicle: saline with Tween-80
  T/C: 102 % of control
dose: 400.0 mg/kg/injection, schedule: Q04DX003 (ip), vehicle: saline with Tween-80
  T/C: 99 % of control

## O=C(Nc1ccc(S(=O)(=O)F)cc1)/C(=C/c1ccc([N+](=O)[O-])cc1)c1ccccc1
[6]
  T/C: 102 % of control
[7]
  T/C: 97 % of control

## CCOP(=O)(CS(=O)(=O)CCC1(C)NC(=O)NC1=O)OCC (stereo unspecified)
dose: 60.0 mg/kg/injection, schedule: Q01DX005 (ip), vehicle: saline
  T/C: 101 % of control
dose: 120.0 mg/kg/injection, schedule: Q01DX005 (ip), vehicle: saline
  T/C: 103 % of control
dose: 240.0 mg/kg/injection, schedule: Q01DX005 (ip), vehicle: saline
  T/C: 103 % of control

## CC(C)CC[NH-].CC(C)CC[NH-].[Cl][Pt+2]([Cl])([Cl])[Cl]
[1]
  T/C: 176 % of control

## CCc1ccc(NS(=O)(=O)c2ccc(F)cc2)cc1
[6]
  T/C: 104 % of control
[7]
  T/C: 104 % of control
[8]
  T/C: 96 % of control

## C#CC(O)C1CC1 (stereo unspecified)
dose: 100.0 mg/kg/injection, schedule: Q01DX001 (ip), vehicle: saline + Tween-80 + alcohol
  T/C: 101 % of control

## C/C(=N\N=C(/[Se])N1CC2CCC(CC2)C1)c1ccccn1
dose: 1.56 mg/kg/injection, schedule: Q01DX009 (ip), vehicle: Klucel (hydroxypropylcellulose) (HPC)
  T/C: 100 % of control
dose: 3.12 mg/kg/injection, schedule: Q01DX009 (ip), vehicle: Klucel (hydroxypropylcellulose) (HPC)
  T/C: 124 % of control
dose: 12.5 mg/kg/injection, schedule: Q01DX009 (ip), vehicle: Klucel (hydroxypropylcellulose) (HPC)
  T/C: 98 % of control and 97 % of control

## COC(=O)C1=NC(c2ccccc2)(c2ccccc2)C(C(=O)OC)=C(C(=O)OC)P(c2ccccc2)(c2ccccc2)=C1C(=O)OC
[9]
  T/C: 88 % of control
[10]
  T/C: 92 % of control
[11]
  T/C: 110 % of control

## C[n+]1ccc(Nc2ccc(NC(=O)c3ccc(Nc4cc[n+](C)c5ccc(N)cc45)cc3N)cc2)cc1
dose: 0.18 mg/kg/injection, schedule: Q01DX009 (ip), vehicle: saline with Tween-80
  T/C: 111 % of control
dose: 0.27 mg/kg/injection, schedule: Q01DX009 (ip), vehicle: saline with Tween-80
  T/C: 124 % of control
dose: 1.0 mg/kg/injection, schedule: Q01DX009 (ip), vehicle: saline with Tween-80
  T/C: 157 % of control
dose: 1.33 mg/kg/injection, schedule: Q01DX009 (ip), vehicle: saline with Tween-80
  T/C: 154 % of control
dose: 1.5 mg/kg/injection, schedule: Q01DX009 (ip), vehicle: saline with Tween-80
  T/C: 163 % of control
dose: 2.0 mg/kg/injection, schedule: Q01DX009 (ip), vehicle: saline with Tween-80
  T/C: 200 % of control
dose: 3.0 mg/kg/injection, schedule: Q01DX009 (ip), vehicle: saline with Tween-80
  T/C: 245 % of control
dose: 3.13 mg/kg/injection, schedule: Q01DX009 (ip), vehicle: saline with Tween-80
  T/C: 271 % of control
dose: 4.5 mg/kg/injection, schedule: Q01DX009 (ip), vehicle: saline with Tween-80
  T/C: 257 % of control
dose: 5.0 mg/kg/injection, schedule: Q04DX003 (ip), vehicle: saline with Tween-80
  T/C: 154 % of control
[2]
  T/C: 274 % of control
dose: 7.5 mg/kg/injection, schedule: Q04DX003 (ip), vehicle: saline with Tween-80
  T/C: 163 % of control
[3]
  T/C: 275 % of control
[4]
  T/C: 100 % of control

## COc1ccc2c(c1)CCCC(Br)C2=O (stereo unspecified)
dose: 25.0 mg/kg/injection, schedule: Q01DX009 (ip), vehicle: distilled water + alcohol
  T/C: 107 % of control
dose: 50.0 mg/kg/injection, schedule: Q01DX009 (ip), vehicle: distilled water + alcohol
  T/C: 105 % of control
dose: 100.0 mg/kg/injection, schedule: Q01DX009 (ip), vehicle: distilled water + alcohol
  T/C: 120 % of control
dose: 200.0 mg/kg/injection, schedule: Q01DX009 (ip), vehicle: distilled water + alcohol
  T/C: 122 % of control

## C=CC(O)CN1CC1 (stereo unspecified)
dose: 0.75 mg/kg/injection, schedule: Q04DX003 (ip), vehicle: saline
  T/C: 122 % of control
dose: 1.25 mg/kg/injection, schedule: Q01DX009 (ip), vehicle: saline
  T/C: 158 % of control
dose: 2.5 mg/kg/injection, schedule: Q01DX009 (ip), vehicle: saline
  T/C: 113 % of control and 212 % of control
dose: 3.0 mg/kg/injection, schedule: Q04DX003 (ip), vehicle: saline
  T/C: 181 % of control
dose: 6.0 mg/kg/injection, schedule: Q04DX003 (ip), vehicle: saline
  T/C: 154 % of control
dose: 10.0 mg/kg/injection, schedule: Q04DX003 (ip), vehicle: saline
  T/C: 154 % of control

## Cc1c(C2=NCC(C)S2)ccc(O)c1S(=O)(=O)O (stereo unspecified)
[12]
  T/C: 92 % of control
[13]
  T/C: 92 % of control
[14]
  T/C: 101 % of control

## CC(=O)Nc1ccc(S(=O)(=O)N/N=C/c2cc([N+](=O)[O-])cc(I)c2O)cc1
[6]
  T/C: 93 % of control
[7]
  T/C: 97 % of control
[8]
  T/C: 103 % of control

## CCN=c1c([N+](=O)[O-])c(NC(=O)c2ccccc2)sn1CC
dose: 100.0 mg/kg/injection, schedule: Q04DX002 (ip), vehicle: Klucel (hydroxypropylcellulose) (HPC)
  T/C: 97 % of control
dose: 200.0 mg/kg/injection, schedule: Q04DX002 (ip), vehicle: Klucel (hydroxypropylcellulose) (HPC)
  T/C: 99 % of control
dose: 400.0 mg/kg/injection, schedule: Q04DX002 (ip), vehicle: Klucel (hydroxypropylcellulose) (HPC)
  T/C: 107 % of control

## Brc1ccc(-c2cnc3nc4[nH]c5ccccc5c4nn23)cc1
dose: 12.5 mg/kg/injection, schedule: Q01DX005 (ip), vehicle: saline with Tween-80
  T/C: 101 % of control
dose: 25.0 mg/kg/injection, schedule: Q01DX005 (ip), vehicle: saline with Tween-80
  T/C: 93 % of control
[5]
  T/C: 89 % of control and 91 % of control

## CC1=N/C(=C\c2ccc(Br)cc2)C(=O)O1
[9]
  T/C: 109 % of control
[10]
  T/C: 98 % of control
[11]
  T/C: 112 % of control

## C[N+]12CCCCC1CC2 (stereo unspecified)
dose: 6.25 mg/kg/injection, schedule: Q01DX009 (ip), vehicle: saline
  T/C: 89 % of control
[15]
  T/C: 88 % of control
[16]
  T/C: 91 % of control

## CN(C)c1n[nH]c(N)n1
[15]
  T/C: 101 % of control
[16]
  T/C: 103 % of control
[12]
  T/C: 108 % of control and 95 % of control and 97 % of control
[13]
  T/C: 103 % of control and 104 % of control and 108 % of control
[14]
  T/C: 105 % of control and 97 % of control
dose: 400.0 mg/kg/injection, schedule: Q01DX009 (ip), vehicle: saline
  T/C: 105 % of control and 111 % of control and 113 % of control

## O=C(Nc1ccc(Cl)cc1)Nc1nnc(-c2ccc(-c3nnc(NC(=O)Nc4ccc(Cl)cc4)o3)cc2)o1
[6]
  T/C: 104 % of control
[7]
  T/C: 100 % of control
[8]
  T/C: 98 % of control

## O=C(Nc1ccccc1)Oc1ccc[nH]c1=O
dose: 25.0 mg/kg/injection, schedule: Q01DX009 (ip), vehicle: Klucel (hydroxypropylcellulose) (HPC)
  T/C: 117 % of control and 122 % of control
[16]
  T/C: 113 % of control and 120 % of control
dose: 50.0 mg/kg/injection, schedule: Q01DX009 (ip), vehicle: Klucel (hydroxypropylcellulose) (HPC)
  T/C: 117 % of control and 123 % of control
[12]
  T/C: 118 % of control
dose: 100.0 mg/kg/injection, schedule: Q01DX009 (ip), vehicle: Klucel (hydroxypropylcellulose) (HPC)
  T/C: 87 % of control

From PubChem BioAssay AID330 (DTP/NCI, 2004)
